In patent US9481685B2, “Imaging neuroinflammation” (GE Healthcare Limited, priority 2008, dated 2016):
Where two headings read alike, the source gives them in different places.

Experiments:
[1] = biological target: Wistar rat heart PBR (Rattus norvegicus (Rat), UniProt P16257); test: In vitro potency assay: competition for binding to PBR against 0.3 nM [3H]-PK-11195
Method: The reaction was carried out in 50 mM Tris-HCl, pH 7.4 10 mM MgCl2 for 15 minutes at 25° C.

[2] = biological target: T1, PBR (Rattus norvegicus (Rat), UniProt P16257); test: Autoradiography using facial nerve axotomy (FNA) model; type: in vivo; details: facial nucleus, 30 minutes after injection
Method: For in vivo studies, male Wistar rats (180-200 g) were used. Under Isoflurane anaesthesia, the hair from the right side of the auricular region was removed. An infraauricular incision was made and the main trunk of the facial nerve identified. The facial nerve was severed behind the ear at the exit from the stylomastoid foramen. The wound was sutured and animals left to recover. Seven days post-surgery animals were injected with ˜5-10 MBq in vivo imaging agent 1 via the lateral tail vein. Animals were killed 30 minutes later and brain stem removed and frozen in isopentane. Cryostat sections (12 μm) of brainstem containing both facial nuclei were mounted on glass slides and exposed to phosphor screen overnight.
Screens were then scanned on the Storm (GE Healthcare) phosphor-imager and the resultant scan was analysed and quantified using ImageQuant TL (GE Healthcare).

[3] = biological target: T1, PBR; test: In vivo biodistribution, olfactory bulb:striatum uptake; details: 18F-labelled agents, adult male Wistar rats, lateral tail vein, 30 min post-injection
Method: In vivo imaging agents 1-7 as prepared in Examples 7, 8 and 9 above were tested in the in vivo biodistribution model and their biodistribution compared to that of the prior art compound [^18F]FE-PBR (prepared according to Example 14 of WO 2007/057705).
Adult male Wistar rats (200-300 g) were injected with 1-3 MBq of each in vivo imaging agent via the lateral tail vein. At 2 10,30 or 60 min (n=3) after injection, rats were euthanised and tissues or fluids were sampled for radioactive measurement by liquid scintillation counting.

[4] = non-radioactive analogues, Wistar rat heart PBR, vs 0.3 nM [3H]-PK-11195, 15 minutes at 25° C., read-out: Ki

Row | Compound | Ki [1, 4] [nM] | OB:Striatum @ 30 min [3] | Average intensity in the lesioned side ([2]; lesioned side, seven days post-surgery) | Average intensity in the non-lesioned side ([2]; non-lesioned side) | Ki [1] [nM]
1 | CCN(CC)C(=O)C1Sc2ccccc2-c2c1c1cc(OC)ccc1n2CCF (racemic) [Imaging Agent 1, (+-)-11-(2-fluoroethyl)-8-methoxy-6,11-dihydro-5-thia-11-aza-benzo[a]fluorene-6-carboxylic acid diethyl amide] | 0.37 |  | 7.75±0.95 | 3.73±0.36 | 
2 | CCN(CC)C(=O)C1Sc2ccccc2-c2c1c1ccccc1n2CC[18F] (stereo not shown) [[^18F]FE-PBR, reference compound] |  | 1.42 |  |  | 0.68
3 | (+-)-11-(2-fluoroethyl)-10-methoxy-6,11-dihydro-5-thia-11-aza-benzo[a]fluorene-6-carboxylic acid diethyl amide [Imaging Agent 3] | 0.4 | 3.50 |  |  | 

Second part, led by results:

Row | Ki [1, 4] [nM] | OB:Striatum @ 30 min [3] | Compound | Average intensity in the lesioned side ([2]; lesioned side, seven days post-surgery) | Average intensity in the non-lesioned side ([2]; non-lesioned side) | Ki [1] [nM]
4 | 0.52 | 2.67 | CCOc1ccc2c(c1)c1c(n2CCF)-c2ccccc2SC1C(=O)N(CC)CC (stereo not shown) [compound 6] |  |  | 
5 | 1.09 | 2.42 | CCN(CC)C(=O)C1Sc2ccccc2-c2c1c1c(OC)cccc1n2CCF (stereo not shown) [compound 7] |  |  | 
6 | 0.93 | 2.00 | (+-)-4-fluoro-11-(2-fluoroethyl)-6,11-dihydro-5-thia-11-aza-benzo[a]fluorene-6-carboxylic acid diethyl amide [Imaging Agent 4] |  |  | 
